Measurements as given in paper PMC10218234, “Design, Synthesis and Antitumor Activity of 1H-indazole-3-amine Derivatives” (International Journal of Molecular Sciences, 2023).
Entries after “also recorded” stand apart in the source; their conditions may differ. Read-outs that look alike come from different tables or passages of the source.

How the values were obtained:
K562 cells [1] = assay: Cell cycle analysis (PI staining, flow cytometry); assay type: cell-based, human; conditions: 24 h
Procedure: To further explore the antitumor properties of 6o, the effect of 6o on cell cycle distribution was evaluated. PI staining was used to perform cell cycle analysis.
To analyze the cell cycle, a PI apoptosis detection kit (Solarbio, Wuhan, China) was utilized. After K562 cells were seeded in 6-well plates for 24 h, compound 6o (10, 12 and 14 μM) or positive control was added to the plates for another 24 h. Then, cells were washed three times with PBS, and fixed with 70% ethanol at 4°C for overnight. After fixed, cells were again washed with PBS and incubated at 37 °C with 100 μL RNase A for 30 min. After this, cells were incubated with 400 μL PI for 30 min at 4 °C. After staining, cells were subjected to Flow Cytometry using Cell Quest software (BD, SN: E34297502014) and the PI fluorescence was recorded in the FL2 channel. Data were analyzed using FlowJo V10.

A549 cells = assay: MTT anti-proliferative assay, A549; assay type: cell-based; conditions: Homo sapiens, read-out: IC50 ± SD, A549
Procedure: (§1) The antiproliferative activity of the target indazole derivatives was evaluated against a panel of human cancer cell lines (human chronic myeloid leukemia cell lines K562; human lung cancer cell lines A549; human prostate cancer cell lines PC-3; human hepatoma cell lines HepG-2) in vitro, and human embryonic kidney cell lines HEK-293 were used to evaluate the cytotoxicity of a normal cell with high activity derivatives by MTT assay. Moreover, 5-fluorouracil (5-Fu), a broad-spectrum drug antitumor drug with therapeutic effects on various cancers, was used as a positive control.
(§2) Lung (A549), chronic myeloid leukemia (K562), prostate (PC3), and live (Hep-G2) cells were purchased from the Cell Bank of the Chinese Academy of Sciences (Kunming, China). A549, K562, and PC-3 cells were cultured in RPMI-1640 medium and the liver cells Hep-G2 were cultured in MEM medium. All mediums were supplemented with 10% FBS, 100 μg/mL penicillin and 100 μg/mL streptomycin. All cells were cultivated in a 5% CO2 incubator at 37 °C.
(§3) To investigate the anticancer activity of indazole derivatives, A549, K562, PC3, and Hep-G2 cells were treated with targets compounds respectively for 48 h in a range of concentrations (from 0.625 to 10 μM) and subjected to a proliferation assay using the MTT assay. Exponentially growing cells were seeded at a density of 5000 cells per well in 96-well plates containing 100 μL of fresh growth medium. After allowing the cells to attach for 24 h, target compounds were added. After incubation for 48 h, viable cells were stained with MTT (0.5 mg/mL) for 4 h, and the produced formazan crystals were dissolved with 150 µL of dimethyl sulfoxide. Absorbance was measured at 490 nm using an automated microplate reader (Tecan, Infinite M200 Pro, Männedorf, Switzerland). The relative cell viability was calculated according to the following equation: Cell viability%=experimental OD value/control OD value×100%Cell inhibition%=control OD value−experimental OD value/control OD value×100%
(§4) Cell inhibition%=control OD value−experimental OD value/control OD value×100%

PC-3 cells = assay: MTT anti-proliferative assay, PC-3; assay type: cell-based; conditions: Homo sapiens, PC-3, 48 h
Procedure: as §1, §2
as §3, with “Exponentially” for “To investigate the anticancer activity of indazole derivatives, A549, K562, PC3, and Hep-G2 cells were treated with targets compounds respectively for 48 h in a range of concentrations (from 0.625 to 10 μM) and subjected to a proliferation assay using the MTT assay. Exponentially”
as §4

K562 cells [2] = assay: MTT anti-proliferative assay, K562; assay type: cell-based; conditions: Homo sapiens
Procedure: as §1, §2, §3, §4

Hep-G2 cells = assay: MTT anti-proliferative assay, Hep-G2; assay type: cell-based; conditions: Homo sapiens
Procedure: as §1, §2, §3, §4

HEK-293 cells = assay: MTT cytotoxicity to normal cells, HEK-293; assay type: cell-based, human; conditions: for Selectivity index (SI) for Hep-G2 cells: IC50 in HEK-293 divided by IC50 in Hep-G2; for Selectivity index (SI) for K562 cells: IC50 in HEK-293 divided by IC50 in K562
Procedure: as §1, §3, §4

[3] = MTT cytotoxicity to normal cells, HEK-293; assay type: cell-based, human; conditions: human, HEK-293 cells (normal human embryonic kidney cells); normal cell HEK-293; MTT; read-out: IC50 ± SD, HEK-293
Procedure: as §1, §3, §4

[4] = tested on: Bax and Bcl-2 expression in K562 cells; assay: Western blotting of apoptosis-related proteins Bax and Bcl-2; assay type: cell-based, human; conditions: K562, 48 h
Procedure: (§5) To quantify the effects of 6o on K562 cell apoptosis, K562 cells were treated with different concentrations of the compound 6o and followed by Annexin V-FITC/PI detection assay.
K562 cells were treated with compound 6o for 48 h, then, lysed in 1×RIPA lysis buffer (Solarbio) with proteinase (Solarbio) and phosphatase inhibitors (Solarbio) for 15 min on ice (proteinase: phosphatase inhibitors: 1 × RIPA lysis buffer = 1:1:100), scraped off from the plate and prepared cell lysates. These lysates were centrifuged at 1.2 × 10^4 rpm at 4 °C for 15 min to collect the supernatants and the protein concentration of each sample was quantified by the BCA protein assay kit (Beyotime, Shanghai, China). Protein was separated by SDS-PAGE and then transferred onto the PVDF membrane. After blocking with 5% skim milk for 2 h, befitting primary antibodies include Bax (Proteintech; Type: Rabbit; Cat No.: 50599-2-lg); Bcl-2 (Proteintech; Type: Mouse; Cat No.: 60178-1-lg); GAPDH (Proteintech; Type: Mouse; Cat No.: 60004-1-lg); β-actin (Proteintech; Type: Rabbit; Cat No.: 81115-1-RR); P53 (Cell signaling; Type: Rabbit; Cat No.: #2527) and MDM2 (Cell signaling; Type: Rabbit; Cat No.: #86934) were sealed in Antibody Dilution Buffer, and cocultivated with the PDF membrane at 4 °C for overnight. […]

K562 cells [5] = assay: Annexin V-FITC/PI cell apoptosis detection assay (flow cytometry); assay type: cell-based, human; conditions: 48 h
Procedure: as §5
Activation of tumor cell apoptosis plays an important role in treatment cancer. To investigate whether apoptosis could underlie the anticancer activity of 6o, K562 cells were treated with 6o (0, 10, 12 or 14 μM) for 48 h and the percentage of apoptosis was determined by flow cytometry, Annexin V-FITC/PI Apoptosis Detection Kit (BD, Franklin Lakes, NJ, USA) was used. Cells (1 × 10^6/mL per well) were plated in 6-well culture plates and grown for 24 h. After treatment with compound 6o for 48 h, the collected cells were washed two times with ice-cold PBS, counted, and 100 μL of cell suspension with a density of 1 × 10^6 cells/mL was prepared, then incubated with 5 μL Annexin V-FITC and 5 μL Propidium iodide (PI) in the dark for 15 min. After 15 min of incubation and added 400 μL of 1 × binding buffer, and use Cell Quest software (BD, SN: E34297502014) to perform detection on Flow Cytometry (BD, Franklin Lakes, NJ, USA). Data were analyzed using FlowJo V10.

[6] = tested on: p53 and MDM2 expression in K562 cells; assay: Western blotting of p53 and MDM2; assay type: cell-based, human; conditions: K562, 48 h
Procedure: Loss of p53 activity by deletion, mutation, or MDM2 over-expression, is the most common event in the development and progression of cancer. To confirm the ability of 6o to inhibit the p53 and MDM2 interaction in K562, the expression levels of these two proteins were evaluated by Western blotting assay after 48 h of 6o treatment. […] In summary, 6o could change the expression of p53 and MDM2, disrupting the balance of intracellular p53 protein levels, and eventually inducing apoptosis of K562.
K562 cells were treated with compound 6o for 48 h, then, lysed in 1×RIPA lysis buffer (Solarbio) with proteinase (Solarbio) and phosphatase inhibitors (Solarbio) for 15 min on ice (proteinase: phosphatase inhibitors: 1 × RIPA lysis buffer = 1:1:100), scraped off from the plate and prepared cell lysates. These lysates were centrifuged at 1.2 × 10^4 rpm at 4 °C for 15 min to collect the supernatants and the protein concentration of each sample was quantified by the BCA protein assay kit (Beyotime, Shanghai, China). Protein was separated by SDS-PAGE and then transferred onto the PVDF membrane. […]

[7] = Table 1, read-out: IC50 ± SD, PC-3
[8] = Table 2, read-out: IC50 ± SD, PC-3
[9] = Table 1, 48 h, read-out: IC50 ± SD, K562
[10] = Table 3, read-out: IC50 ± SD, K562
[11] = HepG2, 48 h, Table 1, 48 h, read-out: IC50 ± SD, Hep-G2
[12] = HepG2, 48 h, Table 2, 48 h, read-out: IC50 ± SD, Hep-G2
[13] = HepG2, Table 3, read-out: IC50 ± SD, Hep-G2
[14] = Table 2, 48 h, read-out: IC50 ± SD, K562

IC50 (A549 cells; Table 1, 48 h)	IC50 (PC-3 cells; [7])	IC50 (PC-3 cells; [8])	IC50 (K562 cells [2]; [9])	IC50 (K562 cells [2]; [10])	IC50 (Hep-G2 cells; [11])	IC50 (Hep-G2 cells; [12])	IC50 (Hep-G2 cells; [13])	melting point	IC50 (A549 cells; Table 2, 48 h)	IC50 (K562 cells [2]; [14])	Compound	Selectivity index (SI) for Hep-G2 cells (HEK-293 cells)	Selectivity index (SI) for K562 cells (HEK-293 cells)	IC50 at 48 h [3]	further results
8.37 ± 0.79 µM	9.17 ± 3.93 µM	3.47 ± 0.21 µM	8.53 ± 2.27 µM	8.53 ± 2.27 µM	9.78 ± 1.58 µM	2.25 ± 0.46 µM	9.78 ± 1.58 µM				O=c1[nH]cc(F)c(=O)[nH]1 [5-Fu, 5-fluorouracil, reference compound]	0.12	0.14	1.16 ± 0.11 µM	increase of the proportion of the G0/G1 phase after drug treatment (K562 cells [1]; K562, positive control): 10%
7.78 ± 0.18 µM	12.6 ± 2.17 µM		8.86 ± 0.66 µM		3.32 ± 0.43 µM		3.32 ± 0.43 µM	204 to 205 °C			O=C(CSc1ccc(Br)cc1)Nc1n[nH]c2ccc(-c3cc(F)cc(F)c3)cc12 [compound 5k]	3.67		12.2 ± 2.85 µM	
		8.34 ± 1.55 µM		5.15 ± 0.55 µM		7.37 ± 0.24 µM		183 to 185 °C	6.73 ± 1.03 µM	5.15 ± 0.55 µM	O=C(CN1CCN(c2ccc(C(F)(F)F)cc2)CC1)Nc1n[nH]c2ccc(-c3ccc(Cl)c(F)c3)cc12 [compound 6o]		6.45	33.2 ± 3.83 µM	G0/G1 population (K562 cells [1]; K562, 10 μM): 31.8%; G0/G1 population (K562 cells [1]; K562, 12 μM): 36.4%; G0/G1 population (K562 cells [1]; K562, 14 μM): 41.1%; proportion of S phase cells (K562 cells [1]; K562, 10, 12 and 14 μM, vs negative control): decreased significantly; expression of Bax (pro-apoptotic protein) [4]: increase; expression of Bcl-2 (apoptosis-inhibiting protein) [4]: decreased; also recorded: reduce; total apoptosis rate (early and late apoptosis) (K562 cells [5]; K562, 10 μM): 9.64%; total apoptosis rate (early and late apoptosis) (K562 cells [5]; K562, 12 μM): 16.59%; total apoptosis rate (early and late apoptosis) (K562 cells [5]; K562, 14 μM): 37.72%; expression level of p53 protein [6]: up-regulate; expression of MDM2 protein [6]: reduce
		> 50 µM				1.23 ± 0.39 µM		188 to 189 °C	24 ± 2.92 µM	> 50 µM	COc1ccc(-c2ccc3[nH]nc(NC(=O)CN4CCN(c5ccc(OC)cc5)CC4)c3c2)cc1 [6c]				
